{
  "source": "patent US20200129476A1",
  "about": "“PARP Inhibitor in Combination with a Glucocorticoid and/or Ascorbic Acid and/or a Protein Growth Factor for the Treatment of Impaired Wound Healing” (AKRIBES BIOMEDICAL GMBH, priority 2017, published 2020)",
  "key": {"IL-1α": {"tested_on": "IL-1α", "test": "Fibroblast-macrophage coculture with wound exudate: IL-1α", "format": "cell-based, human", "settings": "WE #78; veliparib 10 μM, talazoparib 0.1 μM", "procedure": "CD14^+ monocytes, isolated from PBMC of healthy donors by magnetic bead separation were incubated either alone or in the presence of primary human dermal fibroblasts (CelINTec) or fibroblast-derived matrices (FDM). FDM had been generated from primary human dermal fibroblasts by a 3-week incubation with the growth supplements vitamin C or insulin and EGF (vitamin C: 2-phospho-L-ascorbic acid trisodium salt, 100 μg/ml; human EGF, 5 ng/ml; human insulin, 5 μg/ml). Alternatively, fibroblast monolayer cultures can be used as well. After 4 days to a week to allow for macrophage differentiation in the presence or absence of M-CSF (25 ng/ml), the cultures were stimulated overnight with graded concentrations of test compounds in the absence or presence of various dilutions of sterile-filtered WE. IFN-g (50 ng/ml), LPS (100 ng/ml) and IL-4 (25 ng/ml) or combinations thereof served as controls for M1 and M2 macrophage induction. For negative control samples, medium was added instead of specific stimuli. WE were added to the culture medium for overnight stimulation at dilutions ranging from 1:25 to 1:100.\nSupernatants were harvested and frozen for cytokine determination by ELISA, and cells were harvested and subjected to FACS analysis, gating on the monocyte population. Geometric means or mean fluorescence intensities (MFI) were used to quantify surface marker expression. […]"}, "macrophages": {"tested_on": "macrophages", "test": "Fibroblast-macrophage coculture with wound exudate: live cells in FACS CD45-gate", "format": "cell-based, human", "settings": "WE #78", "procedure": "CD14^+ monocytes, isolated from PBMC of healthy donors by magnetic bead separation were incubated either alone or in the presence of primary human dermal fibroblasts (CelINTec) or fibroblast-derived matrices (FDM). FDM had been generated from primary human dermal fibroblasts by a 3-week incubation with the growth supplements vitamin C or insulin and EGF (vitamin C: 2-phospho-L-ascorbic acid trisodium salt, 100 μg/ml; human EGF, 5 ng/ml; human insulin, 5 μg/ml). Alternatively, fibroblast monolayer cultures can be used as well. […]\nSupernatants were harvested and frozen for cytokine determination by ELISA, and cells were harvested and subjected to FACS analysis, gating on the monocyte population. Geometric means or mean fluorescence intensities (MFI) were used to quantify surface marker expression.\nCells were harvested and resuspended in FACS buffer (PBS containing 2% FCS). […] Co-staining with CD45 eFluor (#506 69-0459-42) was used to distinguish macrophages from primary human fibroblasts when analyzed from co-cultures. After washing cells with FACS buffer, they were fixed with 1% paraformaldehyde in PBS and stored at 4° C. in the dark until data were acquired on a Gallios flow cytometer from Beckman Coulter and analyzed with the Kaluza analysis software 1.3."}, "[1]": {"tested_on": "primary human dermal fibroblasts (HDF)", "test": "Primary human dermal fibroblast (HDF) proliferation assay (2D), with or without wound exudate", "format": "cell-based", "settings": "for HDF proliferation, PARP inhibitor alone: talazoparib 1 μM", "procedure": "Primary human dermal fibroblasts (HDF) were purchased from CELLnTEC, Bern. They were routinely grown in Dulbecco's modified Eagle's medium (DMEM) containing 10% FCS, 2 mM glutamine, and 100 U/ml penicillin/100 μg/ml streptomycin. Media, antibiotics, and glutamine were bought from Lonza. The cells were used at passage 5-15. Cells were trypsinized and seeded at 5000 cells/well in 200 μl into the inner wells of 96-well plates. The outer wells were loaded with sterile water. The cells were allowed to adhere overnight and then incubated for 72 hours at 37° C. under the following conditions: graded compound concentrations or 20 ng/ml PDGF-BB (Tonbo Biosciences) in the absence or presence of different dilutions of sterile-filtered WE in medium. For control samples, 200p1 medium was added instead of specific stimuli. Alternatively, the cells were seeded into 384-well plates at 2500 cells/well directly together with test compounds or growth factors and WE or medium in a total volume of […].\nAt the end of the 72-hour incubation period, supernatants were removed for the determination of IL-1ß, and the cells were fixed with 4% paraformaldehyde (Morphisto) for 15 minutes at room temperature and washed 3 times with PBS. A control plate was fixed after the overnight adherence of the cells (day 1) to determine the starting cell number.\nTotal cellular protein was determined as a measure of cell number by staining the fixed cells with sulforhodamine B (SRB, Sigma). A 0.4% SRB solution in 1% acetic acid was added to the wells for 30 minutes. The wells were then washed with 1 acetic acid until the wash solution remained colorless. After drying, the dye was eluted with 10 mM Tris.HCl, pH8.5, and absorbance was measured either at 550 or 492 nm for lower and higher cell densities, respectively. The average absorbance of the sample representing the day 1 starting cell number (for 96-well plates) was subtracted from the absorbance values of the WE-treated cells.\nAll experiments were carried out in triplicate for each sample and concentration, and means±standard deviation (SD) were used for the evaluation of the experiment. Results are expressed as percentage of control values for unstimulated cells.\nLow molecular weight compounds (see list in Table 1) were dissolved in DMSO (Bioreagent for cell culture, Sigma) at 10 mM or 100 mM and diluted at least 1:1000 in medium for cellular assays (final DMSO concentration ≤0.1%).\nCells were incubated with compounds for 72 hours in proliferation assays and up to 8 days for FDM assay (refreshed after 4 days). When compounds were tested for their effect on WE stimulation, the incubation of cells with compounds was started and ended simultaneously with WE-incubation."}},
  "note": "“Also recorded” adds a separate entry of the source.",
  "data": [
    {"smiles": "C[C@]1(c2nc3c(C(N)=O)cccc3[nH]2)CCCN1", "note": "[veliparib, 2-((2R)-2-methylpyrrolidin-2-yl)-1H-benzimidazole-4-carboxamide]", "values": [
      {"measurement": "IL-1α induced by wound exudate", "setting": "IL-1α", "value": "reduced"},
      {"measurement": "percentage of live cells in the FACS CD45-gate, veliparib with dexamethasone", "setting": "macrophages; veliparib 10 μM + dexamethasone 10 nM", "value": "further increased"},
      {"measurement": "percentage of live cells in the FACS CD45-gate", "setting": "macrophages; veliparib 10 μM or dexamethasone 10 nM alone", "value": "increased"},
      {"measurement": "cell proliferation under wound exudate-induced inhibition", "setting": "[1]; FIG. 22, WE #43 and #78 used with veliparib", "value": "enhanced cell proliferation"},
      {"measurement": "HDF proliferation, PARP inhibitor plus PDGF", "setting": "[1]; PARP inhibitor dose series + PDGF 20 ng/ml, WE #78 (FIG. 18)", "value": "even further enhanced by the addition of PDGF"},
      {"measurement": "effect on fibroblast proliferation compared across patients", "setting": "[1]; WE from patients #49, #43, #78, #27", "value": "most prominent in the two patients with diabetes"},
      {"measurement": "reproducibility of effect on fibroblast proliferation", "setting": "[1]; WE samples #77 and #78 of one patient (day 1 and day 8)", "value": "reproducible in different samples of the same patient"},
      {"measurement": "fibroblast (HDF) proliferation", "setting": "[1]; presence of WE #43", "value": "strongly beneficial effects"},
      {"measurement": "fibroblast (HDF) proliferation", "setting": "[1]; presence of WE #78 (diabetic patient)", "value": "completely reversed inhibition of wound exudate (WE)-induced fibroblast proliferation; also recorded: dose-dependent increase of HDF proliferation"},
      {"measurement": "fibroblast (HDF) proliferation", "setting": "[1]; presence of WE #78 (diabetic patient), listed as Veliparib", "value": "completely reversed inhibition of wound exudate (WE)-induced fibroblast proliferation; also recorded: strongly beneficial effects"},
      {"measurement": "fibroblast (HDF) proliferation", "setting": "[1]; presence of wound exudate (WE) of patients, several or unspecified WE", "value": "could be confirmed in a number of further wound exudate samples from other patients"},
      {"measurement": "HDF proliferation, PARP inhibitor plus PDGF", "setting": "[1]; veliparib 10 μM, talazoparib 1 μM + PDGF 20 ng/ml, WE #78 (FIG. 17B)", "value": "additively or synergistically enhanced by PDGF"},
      {"measurement": "HDF proliferation, PARP inhibitor alone", "setting": "[1]; veliparib 10 μM, WE #78 (FIG. 17B)", "value": "induce proliferation"},
      {"measurement": "HDF proliferation, PARP inhibitor alone", "setting": "[1]; veliparib 10 μM, absence of WE (FIG. 17A)", "value": "no or an inhibitory effect on fibroblasts on their own"},
      {"measurement": "HDF proliferation, PARP inhibitor alone", "setting": "[1]; veliparib 10 μM, absence of WE (FIG. 17A), listed as Veliparib", "value": "no or even an inhibitory effect on fibroblasts on their own"}
    ]}
  ]
}
